In the NIST ThermoML archive (doi:10.1016/j.jct.2018.08.004):

Experiments:
[1] = xn = mol fraction of the nth substance listed; conditions: x2 = 0; for surface tension liquid-gas: Maximal bubble pressure; for mass density: 100 kPa, Liquid, Vibrating tube method
[2] = Maximal bubble pressure

CC(C)O [propan-2-ol] + CCCC[n+]1ccccc1.N#C[N-]C#N
[1]
Conditions | mass density [kg/m3] | surface tension liquid-gas [mN/m]
288.15 K | 789.41 | 22.2
293.15 K | 785.29 | 21.7
298.15 K | 781.08 | 21.2
303.15 K | 776.81 | 20.8
308.15 K | 772.46 | 20.3
313.15 K | 768.02 | 19.9
318.15 K | 763.48 | 19.4

CCCO [propan-1-ol]
[2]
Conditions | surface tension liquid-gas [mN/m]
288.15 K | 24.5
293.15 K | 23.9
298.15 K | 23.4
303.15 K | 23
308.15 K | 22.5
313.15 K | 22.1
318.15 K | 21.6

CC(C)O [propan-2-ol]
[2]
Conditions | surface tension liquid-gas [mN/m]
288.15 K | 22.2
293.15 K | 21.7
298.15 K | 21.2
303.15 K | 20.8
308.15 K | 20.3
313.15 K | 19.9
318.15 K | 19.4

CCO [ethanol] + CCCC[n+]1ccccc1.N#C[N-]C#N
[1]
Conditions | mass density [kg/m3] | surface tension liquid-gas [mN/m]
288.15 K | 793.91 | 23.3
293.15 K | 789.66 | 22.7
298.15 K | 785.73 | 22.2
303.15 K | 781.05 | 21.6
308.15 K | 776.7 | 21.1
313.15 K | 772.31 | 20.7
318.15 K | 767.88 | 20

CCO [ethanol]
[2]
Conditions | surface tension liquid-gas [mN/m]
288.15 K | 23.3
293.15 K | 22.7
298.15 K | 22.2
303.15 K | 21.6
308.15 K | 21.1
313.15 K | 20.7
318.15 K | 20

CCCO [propan-1-ol] + CCCC[n+]1ccccc1.N#C[N-]C#N
[1]
Conditions | mass density [kg/m3] | surface tension liquid-gas [mN/m]
288.15 K | 807.55 | 24.5
293.15 K | 803.59 | 23.9
298.15 K | 799.58 | 23.4
303.15 K | 795.55 | 23
308.15 K | 791.47 | 22.5
313.15 K | 787.36 | 22.1
318.15 K | 783.2 | 21.6
